This is an account of results in EP4803513A1, “SUBSTITUTED QUINAZOLINE COMPOUND, PREPARATION METHOD THEREFOR, PHARMACEUTICAL COMBINATION THEREOF, AND USE THEREOF” (Hongyun Biotech Co., Ltd., priority 2023, dated 2025).

The first experiment relates to WT-BaF3 cells. Nature of the experiment: Cell antiproliferative activity assay (CCK-8), WT-BaF3 (broad-spectrum cytotoxicity). In kind it is cell-based. The conditions noted are these: 72 h; WT-BaF3 cells (IL-3 supplemented), CCK-8, 3 days incubation. In a few lines:
(§1)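 Growth inhibition over 3 days, with compound serially diluted 3-fold from a 10 µM top concentration. Cells seeded at 100,000 cells/mL; WT-BaF3 medium carried 10% WEHI supernatant as the IL-3 source. Viability read by CCK-8 OD450 after 2-4 h; IC50 from blank-subtracted curve fit.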
Regarding `Cc1nn(C)cc1Nc1ncc2cc(-c3cncnc3C)cc(C(C)C)c2n1` [III-92], the IC50 was in the range of 100 to 500 nM.
With `Cc1nn(C)cc1Nc1ncc2cc(-c3nccnc3C)cc(C(C)C)c2n1` [III-99], the IC50 fell in the range of 500 to 2500 nM.
Consider `Cc1nccnc1-c1cc(C(C)C)c2nc(Nc3cn(C)nc3Cl)ncc2c1` [III-101], for which the IC50 lay within 500 to 2500 nM.
On to `Cc1nccnc1-c1cc(C(C)C)c2nc(Nc3cn(C)nc3C(F)F)ncc2c1` [III-102], for which the IC50 was greater than 2500 nM.
`[2H]C([2H])([2H])n1cc(Nc2ncc3cc(-c4nccnc4C)cc(C(C)C)c3n2)c(C)n1` [III-103] registered an IC50 of 100 to 500 nM.
`Cc1ccncc1-c1cc(C(C)C)c2nc(Nc3cn(C)nc3C)ncc2c1` [III-120] came in with an IC50 of 100 to 500 nM.
The same measure, in the same setting: in the case of `Cc1ccc(C#N)cc1-c1cc(C(C)C)c2nc(Nc3cn(C)nc3C)ncc2c1` [III-130] it was 500 to 2500 nM; in that of `Cc1nccnc1-c1cc(C2CC2)c2nc(Nc3cnn(CC(=O)N(C)C)c3)ncc2c1` [III-132], 500 to 2500 nM.

The subject of the next experiment is T47D cells. Nature of the experiment: Cell antiproliferative activity assay (CCK-8), T47D. In kind it is cell-based. The settings on record: Homo sapiens, 72 h, breast cancer cell line T47D, incubation for 3 days. The method, then: BRK-BaF3, WT-BaF3, WEHI cell line, and breast cancer cell line T47D were cultured using RPMI 1640 Basal medium or DMEM (Dulbecco's Modified Eagle Medium) (Shanghai Peiyuan Biotechnology, L220KJ), supplemented with 10% FBS (Gibco, REF 10099-141C) and 1% P/S (Shanghai Peiyuan Biotechnology, S110JV), in an incubator (Thermo 3020) at 37°C with 5% CO2. Cell viability was above 95%. Cells were passaged at a 3:1 ratio every 3-4 days. For WT-BaF3 cells, WEHI cells were first cultured, and their culture supernatant was filtered through a 0.22 µm filter. This supernatant was added at 10% to the regular culture medium to supplement IL-3 required for WT-BaF3 cell proliferation, which served as the culture medium for WT-BaF3. For testing, cells were first collected and counted, then prepared into a cell suspension at 100,000 cells/mL and plated at 100 µL per well. Drug concentrations started from 10 µM and were serially diluted 3:1. After incubation for 3 days, 20 µL of CCK-8 detection reagent (Targetmol C005) was added to each well. After incubation for 2-4 hours, OD450 was measured using a microplate reader (Varioskan LUX, Thermo Scientific). After subtracting the blank background, the curve was fitted and the IC50 was calculated using XLfit software.
In addition, the following table exemplarily lists the IC50 values of some compounds of the present invention against T47D cells.
Consider `Cc1nn(C)cc1Nc1ncc2cc(-c3cncnc3C)cc(C(C)C)c2n1` [III-92], for which the IC50 is no more than 500 nM.
With `Cc1nn(C)cc1Nc1ncc2cc(-c3nccnc3C)cc(C(C)C)c2n1` [III-99], the IC50 is no more than 500 nM.
For `Cc1nccnc1-c1cc(C(C)C)c2nc(Nc3cn(C)nc3Cl)ncc2c1` [III-101], the IC50 was 500 to 1000 nM.
As for `Cc1nccnc1-c1cc(C(C)C)c2nc(Nc3cn(C)nc3C(F)F)ncc2c1` [III-102], the IC50 lay in the range of 500 to 1000 nM.
Consider `[2H]C([2H])([2H])n1cc(Nc2ncc3cc(-c4nccnc4C)cc(C(C)C)c3n2)c(C)n1` [III-103], for which the IC50 is no more than 500 nM.
On to `Cc1ccncc1-c1cc(C(C)C)c2nc(Nc3cn(C)nc3C)ncc2c1` [III-120], for which the IC50 was no more than 500 nM.
`Cc1ccc(C#N)cc1-c1cc(C(C)C)c2nc(Nc3cn(C)nc3C)ncc2c1` [III-130] displayed an IC50 of no more than 500 nM.
`Cc1nccnc1-c1cc(C2CC2)c2nc(Nc3cnn(CC(=O)N(C)C)c3)ncc2c1` [III-132]: the IC50 was no more than 500 nM.

Another experiment concerns gastric cancer xenograft model GA6208. Briefly: In vivo efficacy evaluation of gastric cancer PDX (GA6208). On the set-up: species or system Balb/c nude mice. The conditions noted are these: I-21 100 mg/kg oral gavage twice daily, I-81 100/80 mg/kg oral gavage twice daily, cisplatin 3 mg/kg tail vein once weekly, in mm³ (unit assumed). The text has this: Tumor tissue was collected from tumor-bearing mice of the gastric cancer xenograft model GA6208, cut into tumor pieces of 2-3 mm in diameter, and subcutaneously inoculated at the right front scapular region of Balb/c nude mice. When the mean tumor volume of the tumor-bearing mice reached approximately 150 mm^3 (100-200 mm^3), the mice were randomly divided into 4 groups of 8 mice each, and administered as follows: vehicle control (0.5% CMC-Na solution, oral gavage, twice daily), compound I-21 (100 mg/kg, oral gavage, twice daily), compound I-81 (100 mg/kg for the first 8 days, then 80 mg/kg for the subsequent 27 days, oral gavage, twice daily), and cisplatin (3 mg/kg, tail vein injection, once weekly), for a total of 35 days.
On to `N.N.[Cl][Pt][Cl]` [cisplatin, reference compound], for which the “Day 35 tumor volume (mean ± SEM)” value came out at 1250.42±137.64.

Staying with this experiment, now noted: tumor growth inhibition vs vehicle control, same dosing as tumor volume.
In the case of `N.N.[Cl][Pt][Cl]` [cisplatin, reference compound], the “Day 35 TGI (%)” value was 11.50%.

The test system of another experiment is BRK-BaF3 cells. Nature of the experiment: Cell antiproliferative activity assay (CCK-8), BRK-BaF3. Format: cell-based. The settings on record: 72 h, CCK-8, 3 days incubation. In a few lines:
as §1
Compound `Cc1nn(C)cc1Nc1ncc2cc(-c3cncnc3C)cc(C(C)C)c2n1` [III-92] returned an IC50 of no more than 20 nM.
`Cc1nn(C)cc1Nc1ncc2cc(-c3nccnc3C)cc(C(C)C)c2n1` [III-99] displayed an IC50 of no more than 20 nM.
The compound `Cc1nccnc1-c1cc(C(C)C)c2nc(Nc3cn(C)nc3Cl)ncc2c1` [III-101] yielded an IC50 of no more than 20 nM.
In turn, `Cc1nccnc1-c1cc(C(C)C)c2nc(Nc3cn(C)nc3C(F)F)ncc2c1` [III-102] displayed an IC50 of no more than 20 nM.
The compound `[2H]C([2H])([2H])n1cc(Nc2ncc3cc(-c4nccnc4C)cc(C(C)C)c3n2)c(C)n1` [III-103] gave an IC50 of no more than 20 nM.
Take `Cc1ccncc1-c1cc(C(C)C)c2nc(Nc3cn(C)nc3C)ncc2c1` [III-120]: the IC50 was no more than 20 nM.
`Cc1ccc(C#N)cc1-c1cc(C(C)C)c2nc(Nc3cn(C)nc3C)ncc2c1` [III-130] came in with an IC50 of no more than 20 nM.
Same read-out and setting: the figure for `Cc1nccnc1-c1cc(C2CC2)c2nc(Nc3cnn(CC(=O)N(C)C)c3)ncc2c1` [III-132] is no more than 20 nM.

The test system of another experiment is GA6208. Nature of the experiment: In vitro activity test of gastric cancer PDX (CellTiter-Glo), GA6208. Format: cell-based. The settings on record: PDX GA6208, gastric cancer with high BRK expression, 168 hours. Here is the method:
(§2) Patient-derived xenograft (PDX) models are methods in which tumor tissue from cancer patients is transplanted into severely immunodeficient mice for culture and passaging, and used to test compound activity. The compounds of the present invention were tested using three PDX samples (GA0119, GA6208, and GA6871, all being gastric cancers with high BRK expression, all cultured in DMEM).
(§3) Preparation of PDX model tumor cell suspension: PDX model animals were housed in the animal facility, and tumor growth was observed weekly. When the PDX model tumor grew to an appropriate size, the tumor was removed and minced using sterile surgical instruments. Collagenase B digestion solution was added, and digestion was performed at 37°C for approximately 2 hours. Undigested tissue was removed by passing through a cell strainer. The strainer was washed with PBS 3-5 times, and the cell pellet was washed with PBS 4 times. Tumor cells were resuspended in culture medium. ACK lysis buffer was used to remove red blood cells when necessary.
(§4) Cell plating: The above cell suspension was taken and counted. The cell suspension concentration was adjusted to 5.75 × 10^5 cells/mL by dilution with culture medium. 3.5 mL of the cell suspension and 6.5 mL of 1% methylcellulose solution were mixed thoroughly. 100 µL of the cell suspension was added to each well of a 96-well plate (including compound-treated cell plates and T0 control cell plates), followed by incubation overnight under conditions of 37°C, 5% CO2, and 95% humidity.
(§5) Day 0 cell viability reading: The CellTiter-Glo® reagent and T0 control cell culture plate were equilibrated at room temperature for 30 minutes. 100 µL of CellTiter-Glo® reagent was added to each well. The plate was shaken on an orbital shaker for 20 minutes to ensure complete cell lysis. The cell culture plate was then equilibrated at room temperature for 10 minutes, and the chemiluminescence signal was read using an EnVision plate reader.
(§6) Day 0 compound treatment: The test compound (stock concentration 10 mM) was taken out and equilibrated at room temperature for use. The compound treatment cell plate was taken out. The test compound solution was added to the corresponding wells. The highest concentration for each compound was 30 µM, with 3-fold serial dilutions, 9 concentration points, each concentration point in triplicate (DMSO concentration normalized). The final concentration of DMSO in each cell well was 0.3%. The dosed 96-well plate was then placed in an incubator at 37°C, 5% CO2, and 95% humidity for continued culture for 168 hours.
(§7) Day 7 cell viability reading: The CellTiter-Glo® reagent and cell culture plate were equilibrated at room temperature for 30 minutes. 100 µL of CellTiter-Glo® reagent was added to each well. The plate was shaken on an orbital shaker for 20 minutes to lyse the cells. The cell plate was then placed at room temperature for 10 minutes to stabilize the luminescence signal, and the luminescence value was read using an EnVision plate reader.
(§8) Data processing: Data were analyzed using GraphPad Prism 9.0 software. A nonlinear sigmoidal curve regression was used to fit the data and generate a dose-response curve, from which the IC50 value was calculated. Cell survival rate (%) = (Lumtest compound - Lummedium control) / (Lumcell control - Lummedium control) × 100%. Lum represents the luminescence value.
`N.N.[Cl][Pt][Cl]` [cisplatin, reference compound]: the IC50 was 298 nM.

The next experiment deals with GA6871. Briefly: In vitro activity test of gastric cancer PDX (CellTiter-Glo), GA6871. In kind it is cell-based. The conditions noted are these: PDX GA6871, gastric cancer with high BRK expression, 168 hours. Here is the method: as §2, §3, §4, §5, §6, §7, §8
Turning to `N.N.[Cl][Pt][Cl]` [cisplatin, reference compound], 4280 nM corresponded to half-maximal inhibition (IC50).

In another experiment the test system is GA0119. Nature of the experiment: In vitro activity test of gastric cancer PDX (CellTiter-Glo), GA0119. Format: cell-based. The settings on record: PDX GA0119, gastric cancer with high BRK expression, 168 hours. The method, then: as §2, §3, §4, §5
Day 0 compound treatment: The test compound (stock concentration 10 mM) was taken out and equilibrated at room temperature for use. The compound treatment cell plate was taken out. The test compound solution was added to the corresponding wells. […]
Day 7 cell viability reading: The CellTiter-Glo® reagent and cell culture plate were equilibrated at room temperature for 30 minutes. […] The cell plate was then placed at room temperature for 10 minutes to stabilize the luminescence signal, and the luminescence value was read using an EnVision plate reader.
Data processing: Data were analyzed using GraphPad Prism 9.0 software. A nonlinear sigmoidal curve regression was used to fit the data and generate a dose-response curve, from which the IC50 value was calculated. […] Lum represents the luminescence value.
`N.N.[Cl][Pt][Cl]` [cisplatin, reference compound] had an IC50 of 1380 nM.
